According to US8642627B2 (priority 2002, dated 2014):
Read-outs that look alike come from different tables or passages of the source.

Key:
[1] = cited from earlier work
adult = details: cited from earlier work
[2] = Andersen Cascade Impactor (ACI) experiment; format: physicochemical
[3] = apparent pH 6.5, 90% ethanol
[4] = aqueous system, 20° C.; cited from earlier work

## CN1CCCC1c1cccnc1 (stereo not shown) [nicotine, 3-(1-methyl-2-pyrrolidinyl)-pyridine]
[1]; in vivo
  arterial levels exceeding the venous levels: six- to ten-fold
[1]; smoking of a cigarette
  time to reach the brain after inhalation: ten
adult
  amount that may kill an adult: Approximately forty
[2]; formulation at apparent pH 4.0, nicotine in salt form
  behaviour of nicotine in the aerosol droplets: remains in the liquid droplets
[2]; formulation at apparent pH 6.0
  behaviour of nicotine in the aerosol droplets: escapes from the liquid droplets as a vapor
  share of nicotine in its free base form: approximately 15%
[3]
  share of nicotine in its free base form: 50%
[4]
  pKa for the acid dissociation constant of the mono protonated form of nicotine: approximately 8.0
physchem; apparent pKa of nicotine, 90% ethanol, titration curve with sulphuric acid
  pKa: 6.5
physchem; apparent pKa, ethanol-based system, 20° C.
  pKa: ~6.5
